Results as given in patent publication US11339171B2, “MDM2 inhibitors” (Gan & Lee Pharmaceuticals, priority 2017, dated 2022).

Tests used:
MDM2 = target: T1, MDM2 (Homo sapiens, UniProt Q00987); assay: Inhibition test of MDM2-P53 (GST-MDM2, Biotin-P53, Anti-GST-Tb, SA-XL665); assay type: binding; details: for inhibitory effect on MDM2 compared with positive control compound HDM201: labels are Example numbers, the compounds with S-configuration are meant
T1 construct: made in house
How it was run: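 Compounds, serially diluted 5-fold (twelve concentrations), were shaken for 90 min at 25° C with a mix of GST-MDM2 (4 nM final), Biotin-P53, anti-GST-Tb and SA-XL665. Buffer: 1×PBS, 0.1% BSA, 5 mM DTT, 1 mM AEBSF; signal read on a microplate reader.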

[1] = tested on: human osteosarcoma cell line SJSA-1; assay: Inhibition of proliferation of human osteosarcoma cell line SJSA-1 (DAPI staining, In Cell Analyzer); details: for IC50: Homo sapiens, SJSA-1, 72 h, read-out: IC50 (nM), inhibitory activity on proliferation of human osteosarcoma cell line SJSA-1, SJSA-1, incubated 72 h; for inhibitory effect on human osteosarcoma cell line SJSA-1 compared with positive control compound HDM201: labels are Example numbers, the compounds with S-configuration are meant

T1 sequence (Q00987 whole entry): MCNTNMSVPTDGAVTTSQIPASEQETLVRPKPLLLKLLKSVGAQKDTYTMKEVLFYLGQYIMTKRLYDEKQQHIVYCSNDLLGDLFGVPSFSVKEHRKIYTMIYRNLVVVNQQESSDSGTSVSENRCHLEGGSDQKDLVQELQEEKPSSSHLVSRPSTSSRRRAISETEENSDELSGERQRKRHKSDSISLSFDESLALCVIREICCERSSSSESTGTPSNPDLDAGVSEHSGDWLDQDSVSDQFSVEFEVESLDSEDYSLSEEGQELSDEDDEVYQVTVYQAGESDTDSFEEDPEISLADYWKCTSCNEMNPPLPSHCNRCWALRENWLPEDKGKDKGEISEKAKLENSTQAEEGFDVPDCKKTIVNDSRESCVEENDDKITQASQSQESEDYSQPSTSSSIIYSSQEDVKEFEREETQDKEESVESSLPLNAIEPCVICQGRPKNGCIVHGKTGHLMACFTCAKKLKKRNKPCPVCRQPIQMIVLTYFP

Compound | IC50 (MDM2) [nM] | IC50 [1] [nM] | inhibitory effect on MDM2 compared with positive control compound HDM201 (MDM2) | inhibitory effect on human osteosarcoma cell line SJSA-1 compared with positive control compound HDM201 [1]
COc1nc(C2CC2)ncc1-c1nc2c(n1C(C)C)[C@]1(C(=O)Nc3cc(Cl)ccc31)N(c1cc(Cl)cnc1C)C2=O [Example R-159, (R)-6-chloro-5′-(5-chloro-2-methylpyridin-3-yl)-2′-(2-cyclopropyl-4-methoxypyrimidin-5-yl)-3′-isopropyl-3′H-spiro[dihydroindole-3,4′-pyrrolo[3,4-d]imidazole]-2,6′(5′H)-dione] | 468 | 5330 | – | –
CCOc1ccccc1-c1nc2c(n1C(C)C)[C@@]1(C(=O)Nc3cc(Cl)ccc31)N(c1cc(Cl)ccc1C)C2=O [Example S-35, (S)-6-chloro-5′-(5-chloro-2-methylphenyl)-2′-(2-ethoxyphenyl)-3′-isopropyl-3′H-spiro[dihydroindole-3,4′-pyrrolo[3,4-d]imidazole]-2,6′(5′H)-dione] | 23.4 | 258 | – | –
COc1cc(C#N)ccc1-c1nc2c(n1C(C)C)[C@]1(C(=O)Nc3cc(Cl)ccc31)N(c1cc(Cl)ccc1C)C2=O [Example R-12, (R)-4-(6-chloro-5′-(5-chloro-2-methylphenyl)-3′-isopropyl-2,6′-dioxo-5′,6′-dihydro-3′H-spiro[dihydroindole-3,4′-pyrrolo[3,4-d]imidazole]-2′-yl)-3-methoxybenzonitrile] | 368 | 2440 | – | –
COc1ncc(-c2nc3c(n2C(C)C)[C@@]2(C(=O)Nc4cc(Cl)ccc42)N(c2ccc(F)c(Cl)c2)C3=O)c(OC)n1 [Example S-3, (S)-6-chloro-5′-(3-chloro-4-fluorophenyl)-2′-(2,4-dimethoxypyrimidin-5-yl)-3′-isopropyl-3′H-spiro[dihydroindole-3,4′-pyrrolo[3,4-d]imidazole]-2,6′(5′H)-dione] | 4.92 | 174 | – | –
CCc1ccc(OC)c(-c2nc3c(n2C(C)C)[C@@]2(C(=O)Nc4cc(Cl)ccc42)N(c2cccc(Cl)c2)C3=O)c1 [Example S-38, (S)-6-chloro-5′-(3-chlorophenyl)-2′-(5-ethyl-2-methoxyphenyl)-3′-isopropyl-3′H-spiro[dihydroindole-3,4′-pyrrolo[3,4-d]imidazole]-2,6′(5′H)-dione] | 12 | 14.7 | – | –
COc1cc(OC)c(-c2nc3c(n2C(C)C)[C@]2(C(=O)Nc4cc(Cl)ccc42)N(c2cc(Cl)ccc2C)C3=O)cc1C [Example R-83, (R)-6-chloro-5′-(5-chloro-2-methylphenyl)-2′-(2,4-dimethoxy-5-methylphenyl)-3′-isopropyl-3′H-spiro[dihydroindole-3,4′-pyrrolo[3,4-d]imidazole]-2,6′(5′H)-dione] | 87.6 | 589 | – | –
COc1ccccc1-c1nc2c(n1C(C)C)[C@@]1(C(=O)Nc3cc(Cl)ccc31)N(c1cc(Cl)cn(C)c1=O)C2=O [Example S-43, (S)-6-chloro-5′-(5-chloro-1-methyl-2-oxo-1,2-dihydropyridin-3-yl)-3′-isopropyl-2′-(2-methoxyphenyl)-3′H-spiro[dihydroindole-3,4′-pyrrolo[3,4-d]imidazole]-2,6′(5′H)-dione] | 3.28 | 564 | – | –
COc1ccc(C(N)=O)cc1-c1nc2c(n1C(C)C)[C@@]1(C(=O)Nc3cc(Cl)ccc31)N(c1cc(Cl)ccc1C)C2=O [Example S-29, (S)-3-(6-chloro-5′-(5-chloro-2-methylphenyl)-3′-isopropyl-2,6′-dioxo-5′,6′-dihydro-3′H-spiro[dihydroindole-3,4′-pyrrolo[3,4-d]imidazole]-2′-yl)-4-methoxybenzamide] | 1.01 | 196 | – | –
CCc1ccc(-c2nc3c(n2C(C)C)[C@]2(C(=O)Nc4cc(Cl)ccc42)N(c2cccc(Cl)c2)C3=O)c(OC)c1 [Example R-107, (R)-6-chloro-5′-(3-chlorophenyl)-2′-(4-ethyl-2-methoxyphenyl)-3′-isopropyl-3′H-spiro[dihydroindole-3,4′-pyrrolo[3,4-d]imidazole]-2,6′(5′H)-dione] | 536 | 3240 | – | –
COc1cc(N)ccc1-c1nc2c(n1C(C)C)C1(C(=O)Nc3cc(Cl)ccc31)N(c1cc(Cl)ccc1C)C2=O (centres unmarked) [Example 49, 2′-(4-amino-2-methoxyphenyl)-6-chloro-5′-(5-chloro-2-methylphenyl)-3′-isopropyl-3′H-spiro[dihydroindole-3,4′-pyrrolo[3,4-d]imidazole]-2,6′(5′H)-dione] | – | – | better | better
COc1nc(OCC(F)F)ncc1-c1nc2c(n1C(C)C)[C@@]1(C(=O)Nc3cc(Cl)ccc31)N(c1cc(Cl)ccc1C)C2=O [Example S-147, (S)-6-chloro-5′-(5-chloro-2-methylphenyl)-2′-(2-(2,2-difluoroethoxy)-4-methoxypyrimidin-5-yl)-3′-isopropyl-3′H-spiro[dihydroindole-3,4′-pyrrolo[3,4-d]imidazole]-2,6′(5′H)-dione] | 5.89 | 271 | – | –
COc1ncc(-c2nc3c(n2C(C)C)C2(C(=O)Nc4cc(Cl)ccc42)N(c2cc(Cl)cnc2C)C3=O)c(OC)n1 (centres unmarked) [Example 42, 6-chloro-5′-(5-chloro-2-methylpyridin-3-yl)-2′-(2,4-dimethoxypyrimidin-5-yl)-3′-isopropyl-3′H-spiro[dihydroindole-3,4′-pyrrolo[3,4-d]imidazole]-2,6′(5′H)-dione] | – | – | better | better
COc1ncc(-c2nc3c(n2C(C)C)[C@]2(C(=O)Nc4cc(Cl)ccc42)N(c2cc(F)cc(Cl)c2)C3=O)c(OC)n1 [Example R-45, (R)-6-chloro-5′-(3-chloro-5-fluorophenyl)-2′-(2,4-dimethoxypyrimidin-5-yl)-3′-isopropyl-3′H-spiro[dihydroindole-3,4′-pyrrolo[3,4-d]imidazole]-2,6′(5′H)-dione] | 171 | 4310 | – | –
COc1ccc(C#N)cc1-c1nc2c(n1C(C)C)[C@]1(C(=O)Nc3cc(Cl)ccc31)N(c1cc(Cl)ccc1C)C2=O [Example R-13, (R)-3-(6-chloro-5′-(5-chloro-2-methylphenyl)-3′-isopropyl-2,6′-dioxo-5′,6′-dihydro-3′H-spiro[dihydroindole-3,4′-pyrrolo[3,4-d]imidazole]-2′-yl)-4-methoxybenzonitrile] | 121 | 1120 | – | –
COc1ccc(C#N)cc1-c1nc2c(n1C(C)C)[C@@]1(C(=O)Nc3cc(Cl)ccc31)N(c1cc(Cl)ccc1C)C2=O [Example S-13, (S)-3-(6-chloro-5′-(5-chloro-2-methylphenyl)-3′-isopropyl-2,6′-dioxo-5′,6′-dihydro-3′H-spiro[dihydroindole-3,4′-pyrrolo[3,4-d]imidazole]-2′-yl)-4-methoxybenzonitrile] | 2.55 | 5.95 | – | –
CCOc1ccc(-c2nc3c(n2C(C)C)[C@@]2(C(=O)Nc4cc(Cl)ccc42)N(c2cccc(Cl)c2)C3=O)c(OC)c1 [Example S-100, (S)-6-chloro-5′-(3-chlorophenyl)-2′-(4-ethoxy-2-methoxyphenyl)-3′-isopropyl-3′H-spiro[dihydroindole-3,4′-pyrrolo[3,4-d]imidazole]-2,6′(5′H)-dione] | 3.14 | 1210 | – | –
CCOc1cc(OC)c(-c2nc3c(n2C(C)C)C2(C(=O)Nc4cc(Cl)ccc42)N(c2cc(F)cc(Cl)c2)C3=O)cn1 (centres unmarked) [Example 139, 6-chloro-5′-(3-chloro-5-fluorophenyl)-2′-(6-ethoxy-4-methoxypyridin-3-yl)-3′-isopropyl-3′H-spiro[dihydroindole-3,4′-pyrrolo[3,4-d]imidazole]-2,6′(5′H)-dione] | – | – | better | better
COc1cc(OC)c(-c2nc3c(n2C(C)C)[C@@]2(C(=O)Nc4cc(Cl)ccc42)N(c2cc(Cl)ccc2C)C3=O)cc1C [Example S-83, (S)-6-chloro-5′-(5-chloro-2-methylphenyl)-2′-(2,4-dimethoxy-5-methylphenyl)-3′-isopropyl-3′H-spiro[dihydroindole-3,4′-pyrrolo[3,4-d]imidazole]-2,6′(5′H)-dione] | 2.23 | 6.21 | – | –
CCn1c(-c2cnc(OC)nc2OC)nc2c1[C@@]1(C(=O)Nc3cc(Cl)ccc31)N(c1cc(Cl)ccc1C)C2=O [Example S-26, (S)-6-chloro-5′-(5-chloro-2-methylphenyl)-2′-(2,4-dimethoxypyrimidin-5-yl)-3′-ethyl-3′H-spiro[dihydroindole-3,4′-pyrrolo[3,4-d]imidazole]-2,6′(5′H)-dione] | 2.37 | 22.2 | – | –
COc1cc(-c2nc3c(n2C(C)C)[C@@]2(C(=O)Nc4cc(Cl)ccc42)N(c2cc(Cl)ccc2C)C3=O)c(OC)cn1 [Example S-40, (S)-6-chloro-5′-(5-chloro-2-methylphenyl)-2′-(2,5-dimethoxypyridin-4-yl)-3′-isopropyl-3′H-spiro[dihydroindole-3,4′-pyrrolo[3,4-d]imidazole]-2,6′(5′H)-dione] | 3.85 | 14.1 | – | –
COc1cc(C#N)ccc1-c1nc2c(n1C(C)C)[C@@]1(C(=O)Nc3cc(Cl)ccc31)N(c1cc(Cl)ccc1C)C2=O [Example S-12, (S)-4-(6-chloro-5′-(5-chloro-2-methylphenyl)-3′-isopropyl-2,6′-dioxo-5′,6′-dihydro-3′H-spiro[dihydroindole-3,4′-pyrrolo[3,4-d]imidazole]-2′-yl)-3-methoxybenzonitrile] | 3.55 | 5.27 | – | –
COc1cc(OC(F)(F)F)ccc1-c1nc2c(n1C(C)C)[C@@]1(C(=O)Nc3cc(Cl)ccc31)N(c1cc(Cl)ccc1C)C2=O [Example S-87, (S)-6-chloro-5′-(5-chloro-2-methylphenyl)-3′-isopropyl-2′-(2-methoxy-4-(trifluoromethoxy)phenyl)-3′H-spiro[dihydroindole-3,4′-pyrrolo[3,4-d]imidazole]-2,6′(5′H)-dione] | 3.31 | 11.1 | – | –
